Data taken from patent US6348482B1, “Catechols as antimicrobial agents” (Merck & Co., Inc., priority 1999, dated 2002).
Converted amounts (≈) assume the structure as drawn.

Tests used:
Efs = assay: Whole cell antimicrobial screen (MIC), Efs; format: cell-based; conditions: overnight incubation, 2-fold dilutions, read-out: MIC (μg/mL) Efs
Experimental: (§1) Compounds were tested for antimicrobial activity against a panel of organisms according to standard procedures described by the National Committee for Clinical Laboratory Standards (NCCLS document M7-A3, Vol. 13, No. 25, 1993/NCCLS document M27-P, Vol. 12, No. 25, 1992). Compounds were dissolved in 100% DMSO and were diluted to the final reaction concentration (0.1 μg/ml-500 μg/ml) in microbial growth media. In all cases the final concentration of DMSO incubated with cells is less than or equal to 1%. For minimum inhibitory concentration (MIC) calculations, 2-fold dilutions of compounds were added to wells of a microtiter plate containing 1×10^5 bacteria or fungal cells in a final volume of 200 lambda of an appropriate media (Mueller-Hinton Broth; Haemophilus Test Media; Mueller-Hinton Broth+5% Sheep Blood; or […]). Plates were incubated overnight at an appropriate temperature (30° C.-37° C.) and optical densities (measure of cell growth) were measured using a commercial plate reader. The MIC value is defined as the lowest compound concentration inhibiting growth of the test organism.

Efm = assay: Whole cell antimicrobial screen (MIC), Efm; format: cell-based; conditions: overnight incubation, 2-fold dilutions, read-out: MIC (μg/mL) Efm
Experimental: as §1

Sa = assay: Whole cell antimicrobial screen (MIC), Sa; format: cell-based; conditions: overnight incubation, 2-fold dilutions, read-out: MIC (μg/mL) Sa
Experimental: as §1

[1] = biological target: aminoacyl-tRNA synthetases (aaRS); assay: aaRS charging and trichloroacetic acid precipitation assay (IC50), Sa enzyme; format: biochemical; conditions: aaRS from Sa; 20 min preincubation at 25 C
Experimental: (§2) IC50 determinations for the aminoacyl-tRNA synthetases (aaRS) isolated from pathogen or HeLa cells were carried out using a modification of the aaRS charging and trichloroacetic acid precipitation assay described previously (see examples: D. Kern et. al., Biochemie, 61, 1257-1272 (1979) and J. Gilbart et. al. Antimicrobial Agents and Chemotherapy, 37(1), 32-38 (1993)). The aaRS enzymes were prepared via standard cloning and expression methods and partially purified or partially purified from pathogen and HeLa cell extracts. The activity of each aaRS enzyme was standardized as trichloroacetic acid precipitable counts (cpm) obtained at 10 minutes reaction time at Km concentrations of substrates. For practical purposes, the minimal acceptable value is approximately 2000 cpm per 10 minute reaction.
(§3) Preincubations for IC50 determinations were initiated by incubating partially purified aaRS extracts in 50 mM HEPES (pH 7.5), 0.1 mM EDTA, 0.05 mg/ml bovine serum albumin, 10 mM dithiothreitol and 2.5% dimethyl sulfoxide with and without test compound (e.g. compound of the invention (preferably a compound of Formula I)) in a final volume of 20 microliters in a microtiter plate for 20 minutes at 25 C. Test compounds were typically present as serial dilutions in concentration ranges of 0.35 nM to 35 μM. Test compound solutions were prepared by dissolving test compound in 100% dimethyl sulfoxide and diluting to the final concentration with 50 mM HEPES, pH 7.5. IC50 determinations were typically performed in duplicate with each experiment containing 4-8 concentrations of inhibitor along with two no inhibitor controls.
(§4) IC50 incubations were initiated by supplementing the preincubation mixture to a final assay concentration of 10 mM MgCl2, 30 mM KCl, 10 mM KF, 50 mM HEPES (pH 7.5), 20 μM-500 mM ATP, 2-20 μM [^3H] amino acid, and 90-180 μM crude tRNA in a final volume of 35 microliters. The reaction was incubated at 25° C. for 5-20 minutes. At specified time points a 15 microliter aliquot was removed and added to a well of a Millipore filtration plate (Multiscreen-FB, MAFB NOB 10) containing 100 microliters of cold 5% (wt/vol) trichloroacetic acid. Trichloroacetic acid precipitable material was collected by filtration on Millipore Multiscreen filtration station, washed twice with cold 5% trichloroacetic acid, twice with water, and dried. Plates were typically allowed to air dry for several hours or they were baked at 50° C. in a vacuum oven for 30 minutes. The radioactivity on the dried plates was quantitated by the addition of Packard Microscint-20 to the wells and counting with a Packard TopCount scintillation counter.
(§5) Inhibitor activity was typically reported as a percentage of the control aaRS activity. The IC50 value was determined by plotting per cent activity versus compound concentration in the assay and identifying the concentration at which 50% of the activity was remaining.

[2] = biological target: aminoacyl-tRNA synthetases (aaRS); assay: aaRS charging and trichloroacetic acid precipitation assay (IC50), Ef enzyme; format: biochemical; conditions: aaRS from Ef; 20 min preincubation at 25 C
Experimental: as §2, §3, §4, §5

Row | SMILES | MIC (Efs) [µg/mL] | MIC (Efm) [µg/mL] | MIC (Sa) [µg/mL] | IC50 [1] [nM] | IC50 [2] [nM]
1 | O=C(O)Cc1ccc(OCc2nc3ccccc3[nH]2)c(OCc2ccc(Cl)cc2Cl)c1 [130,976] | < 10 | < 10 | < 10 | < 500 | < 500
2 | Clc1ccc(COc2ccccc2OCc2nc3ccccc3[nH]2)c(Cl)c1 [126,419] | > 100 | > 100 | > 100 | < 500 | < 500
3 | O=C(NC(CO)C(=O)O)c1ccc(OCc2ccc(Cl)cc2Cl)c(OCc2nc3ccccc3[nH]2)c1 (stereo not shown) [130,968] | > 100 | > 100 | > 100 | < 500 | < 500
4 | O=C(NC(CO)C(=O)O)c1ccc(OCc2nc3ccccc3[nH]2)c(OCc2ccc(Cl)cc2Cl)c1 (stereo not shown) [130,970] | < 100 | 100 (≈ 189 µM) | > 100 | < 500 | < 500
5 | CS(=O)(=O)NC(=O)c1ccc(OCc2nc3ccccc3[nH]2)c(OCc2ccc(Cl)cc2Cl)c1 [130,971] | 100 (≈ 192 µM) | 100 (≈ 192 µM) | < 100 | < 500 | < 500
